# Test results reported in patent US6251900A, “Heterocyclic compounds and antitumor agent containing the same as active ingredient” (Zenyaku Kogyo Kabushiki Kaisha, priority 1997, dated 2001).
# How the values were obtained:
# [1] = Acute toxicity in BDF1 male mice (Test 3); details: mouse, in vivo, po, orally or abdominally administered, observation for 14 days
# Experimental: The acute toxicity was determined by orally or abdominally administrating the compound 9 or 22 of the present invention, which was adjusted by distilled water added with 1% of hydroxypropyl cellulose, to BDF1 male mice (6-weeks-old, having a body weight of 25±2.5 g) and LD50 was obtained over observation for 14 days. As a result, it was found out that LD50 of any of the compounds was 400-800 mg/kg.
# [2] = system: MCF-7 cells; assay: Growth inhibition of MCF-7 human breast cancer cells, 72 h culture (Test 1); format: cell-based; details: MCF7, 37° C., read-out: 50% Growth inhibition concentrations (GI50)
# Experimental: Used in the test were MCF-7 cells which were established from human breast cancer and were cultured routinely under the conditions of 37° C. and 5% CO2, in RPMI 1640 medium supplemented with 10% fetal calf serum, HEPES buffer solution (25 mM) and kanamycin (0.1 mg/ml). Single cell suspension was prepared by adding trypsin/EDTA to the medium so as to be adjusted to 4.0×10^4 cells/ml. Test compounds were dissolved or suspended in DMSO or RPMI 1640 medium at a concentration of 1.0×10^-4 -1.0×10^-9 M.
# The cell suspension and the sample solution or suspension were filled in a 96-wells microplate at a rate of 0.1 ml of the former and 0.1 ml of the latter per well and cultured at 37° C. for 72 hours in 5% CO2.
# 50% Growth inhibition concentrations (GI50 μM) were calculated from growth inhibitions at various sample concentrations.
# [3] = system: M5076 mouse reticulum cell sarcoma cells; assay: Tumor growth inhibition, M5076 mouse reticulum cell sarcoma transplanted subcutaneously in BDF1 mice (Test 2); format: in vivo; details: abdominally administered for 9 days, tumor weight on day 21
# Experimental: The treated group to which the test sample was administered consisted of seven mice while the control group consisted of ten mice. Six weeks old male mice (BDF1, 25±2.5 g) were employed as host animals.
# M5076 mouse reticulum cell sarcoma cells routinely cultured in abdominal of C57BL/6 male mice were diluted with cold Hanks solution and 1.0×10^6 cells of them were transplanted subcutaneously into left breast of each mouse. The samples prepared by suspending test compounds in 1% hydroxypropyl cellulose (HPC) were abdominally administered for 9 days after the day after the transplantation. After 21 days passed from the transplantation of the tumor, the mice were killed and the tumors were extracted out to measure the tumor weights of the respective groups.
# Effect of sample was calculated as tumor growth inhibition by the following formula:
# Tumor Growth Inhibition (%)=(1-T/C)×100
# T: tumor weight of group with sample administered
# C: tumor weight of control group
Structure (SMILES),LD50 at 336 h [1] [mg/kg],GI50 [2] [nM],Tumor Growth Inhibition (%) ([3]; 200 mg/kg),Tumor Growth Inhibition (%) ([3]; 100 mg/kg)
"C[C@@H]1OCCN(c2nc(N3CCOCC3)nc(-n3cnc4ccccc43)n2)[C@H]1C (relative stereo) [compound 9, 2-(benzimidazol-1-yl)-4-(trans-2,3-dimethylmorpholino)-6-morpholino-1,3,5-triazine]",400 to 800,1200,98.6,
"C[C@@H]1OCCN(c2cc(N3CCOCC3)nc(-n3cnc4ccccc43)n2)[C@H]1C (relative stereo) [compound 22, 2-(benzimidazol-1-yl)-4-(trans-2,3-dimethylmorpholino)-6-morpholinopyrimidine]",400 to 800,2200,,83.8
